What was measured:
[1] = Example 1: effect of oral ketoconazole (400 mg OD or 200 mg BID) on plasma pharmacokinetics of a 300 mg single dose of mifepristone, fasted; format: in vivo, human; conditions: Keto 200 mg BID vs 400 mg OD
From the text: This study was an open-label study in healthy male subjects.
Healthy male volunteers between the ages of 18 to 45 years of age with a body mass index (BMI) ranging between 19 and 32 kg/m2 and a weight of at least 60 kg (132 lbs) were enrolled. Subjects had no clinically significant abnormal findings on the physical examination, ECG, blood pressure, heart rate, medical history, or clinical laboratory results during screening. The QTc interval at screening was less than 450 msec.
In cohort 1, six subjects received ketoconazole 400 mg OD for 14 days.
Subjects remained in the clinic on Days 2 and 3 to receive 400 mg OD oral ketoconazole fasted, and for safety evaluation and collection of blood pharmacokinetic (PK) samples. Subjects were discharged from the clinic on Day 4 following administration of 400 mg OD oral ketoconazole fasted, and returned to the clinic the mornings of Days 5 through 13 to receive 400 mg OD oral ketoconazole fasted.
In cohort 2, six subjects received ketoconazole 200 mg BID for 14 days. […] All 12 subjects completed the study. […]
Subjects in both cohorts returned to the study center on Day 15 for safety monitoring, and completion of the Termination Visit procedures, followed by discharge from the study. Safety was assessed by spontaneously reported adverse events, physical examinations, and routine clinical laboratory tests. […]

[2] = Examples 5-8: liver function of patient with excess cortisol on ketoconazole and reduced mifepristone dose; format: in vivo, human

CC#C[C@]1(O)CC[C@H]2[C@@H]3CCC4=CC(=O)CCC4=C3[C@@H](c3ccc(N(C)C)cc3)C[C@@]21C [Mifepristone, 11β-(4-dimethylaminophenyl)-17β-hydroxy-17α-(1-propynyl)-estra-4,9-dien-3-one]
Mean Ratio AUCtotal (C2/C1) ([1]; geometric mean ratio (AUCinf in text)): 1.05 | Mean Ratio Cmax (C2/C1) ([1]; geometric mean ratio): 1.15 | liver function of the patient ([2]; Example 5: mifepristone reduced from 1200 mg to 900 mg daily with ketoconazole): not significantly compromised | liver function of the patient ([2]; Example 6: mifepristone reduced from 900 mg to 600 mg daily with ketoconazole): not significantly compromised | liver function of the patient ([2]; Example 7: mifepristone reduced from 600 mg to 300 mg daily with ketoconazole): not significantly compromised | liver function of the patient ([2]; Example 8: mifepristone reduced from 1500 mg to 1200 mg daily with ketoconazole): not significantly compromised

Source: patent US12097210B2, “Concomitant administration of glucocorticoid receptor modulators and CYP3A inhibitors” (Corcept Therapeutics, Inc., priority 2017, dated 2024)
